In publication PMC9336311 (Cell reports, 2022):

Key:
[1] = target: CaMKII kinase domain (D135N) (Homo sapiens, UniProt Q9UQM7, D135N); test: ITC binding to D135N CaMKII kinase domain; settings: protein/peptide concentrations high enough to characterize a Kd of several hundred micromolar
CaMKII kinase domain [2] = target: CaMKII kinase domain (Homo sapiens, UniProt Q9UQM7, D135N); test: Fluorescence polarization competition assay against GluN2B; assay type: binding; settings: FP competition, up to low millimolar concentrations
CaMKII kinase domain (Homo sapiens, UniProt Q9UQM7, D135N), sequence (Q9UQM7 7-274 D135N): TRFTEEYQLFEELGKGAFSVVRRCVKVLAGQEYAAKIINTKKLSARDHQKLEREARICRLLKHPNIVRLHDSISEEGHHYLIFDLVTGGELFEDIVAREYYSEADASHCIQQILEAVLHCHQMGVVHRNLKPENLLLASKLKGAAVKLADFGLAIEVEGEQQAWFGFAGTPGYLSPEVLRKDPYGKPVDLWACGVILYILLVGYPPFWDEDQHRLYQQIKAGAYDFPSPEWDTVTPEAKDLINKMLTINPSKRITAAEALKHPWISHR

CaMKII kinase domain [3] = target: CaMKII kinase domain (Homo sapiens, UniProt Q9UQM7); test: Coupled kinase assay with Syntide-2 as substrate; assay type: biochemical; settings: saturating GluN2B S1303D or high levels of CaMKIIN
CaMKII kinase domain (Homo sapiens, UniProt Q9UQM7), sequence (Q9UQM7 7-274): as the sequence (Q9UQM7 7-274 D135N) above, with N129D counted along it

CaMKII kinase domain (D135N), sequence (Q9UQM7 7-274 D135N): as the sequence (Q9UQM7 7-274 D135N) above

Row | Sequence | binding in ITC [1] | competition with GluN2B peptide (CaMKII kinase domain [2]) | effect on Syntide-2 phosphorylation (CaMKII kinase domain [3])
1 | PLARTLSVAGLPGKK [Syntide-2] | did not see any appreciable binding | could not be competed off | 
2 | MSEILPYGEDKMGRFGADPEGSDLSFSCRLQDTNSFFAGNQAKRPPKLGQIGRAKRVVIEDDRIDDVLKGMGEKPPSGV [CaMKIIN] |  |  | completely inhibit
